Entries after “also recorded” stand apart in the source; their conditions may differ. Where two headings read alike, the source gives them in different places.
What was measured:
ATase [1] = target: T1, ATase (Homo sapiens, UniProt P16455); assay: Inactivation of ATase activity in Raji cells; assay type: cell-based; parameters: endogenous in cells; host or cells: Raji
T1 sequence (P16455 1-207): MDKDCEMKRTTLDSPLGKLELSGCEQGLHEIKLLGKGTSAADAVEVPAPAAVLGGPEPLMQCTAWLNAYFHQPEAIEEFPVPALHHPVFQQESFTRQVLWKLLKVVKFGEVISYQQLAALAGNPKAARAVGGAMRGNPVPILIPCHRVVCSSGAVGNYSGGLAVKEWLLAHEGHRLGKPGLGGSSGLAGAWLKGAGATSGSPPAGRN
Protocol: (§1) Mammalian cells were cultured under standard conditions. For example, Raji (a human lymphoblastoid cell line from a Burkitt's lymphoma) cells were grown in suspension culture in RPMI medium supplemented with 10% horse serum. A375M cells are human melanoma cells from which the xenografts described below were established following subcutaneous injection into nude mice: WiDr cells are a human colon carcinoma cell line: Hamster+120 cells are a mitozolomide-selected subline of a Chinese hamster lung fibroblast V79 cell line called RJKO: Yoshida cells are a rat carcinosarcoma cell line and YRbus is a busulphan resistant subline thereof: XP cells are an SV40-transformed fibroblast cell line originally from the skin of a Xeroderma pigmentosum patient, pHMGhAT2b cells are a clone of these cells that have been transfected with a mammalian cell expression vector containing the human ATase cDNA and pHMGla cells are a clone that have been transfected with the expression vector only (i.e. one not containing the human ATase cDNA). Cell pellets were resuspended in cold (4°C) buffer I containing 2 µg/ml leupeptin and sonicated for 10 seconds at 12 µ peak to peak distance. After cooling in ice, the cells were sonicated for a further 10 seconds at 18 µ. Immediately after sonication, 0.01 volumes of 8.7 mg/ml phenylmethanesulphonylfluoride in ethanol was added and the sonicates centrifuged at 15 000 g for 10 minutes at 4°C to pellet cell debris. The supernatant was kept for determination of ATase activity (see below).
Cells were diluted to 10^6/ml in culture medium containing either the appropriate concentration of inactivator or an equivalent volume of vehicle (DMSO). Following incubation at 37°C for 2 hours the cells were harvested by centrifugation, washed twice with PBS and the resulting cell pellets (between 1-2 x 10^7 per pellet) stored at -20°C.

[2] = Growth inhibition of Xeroderma pigmentosum cells by inactivator alone; assay type: cell-based, human; conditions: human, xeroderma pigmentosum cells; Figs 5 & 6; read-out: toxic concentrations in XP cells relative to those at which sensitization to BCNU was observed
Protocol: (§2) In order to assess the effects on cell growth alone, Xeroderma pigmentosum cells and Chinese Hamster V79 cells were exposed to increasing concentrations (up to 600µM) of selected inactivators for 2h at 37°. In some cases, the inactivators were allowed to undergo hydrolysis at 37°C for 20 hours and then added to […] in order to assess the extent to which the decomposition products of the agents might inhibit cell growth. After 6 days the extent of cell growth was determined as described above.

XP cells = assay: as above; assay type: cell-based, human; conditions: inactivator alone, Figure 6, compared with V79 cells, in words
Protocol: as §2

ATase [3] = target: T1, ATase; assay: Inactivation of ATase activity in XP cells; assay type: cell-based; parameters: endogenous in cells; host or cells: Raji
Protocol: as §1, with “Immediately after sonication, 0.01 volumes of 8.7 mg/ml phenylmethanesulphonylfluoride in ethanol was added and the sonicates centrifuged at 15 000 g for 10 minutes at 4°C to pellet cell debris. The supernatant was kept for determination of ATase activity (see below).” left out

Raji cells = assay: Sensitization of Raji cells to BCNU (XTT assay); assay type: cell-based, human; conditions: for Raji sensitization (D90.^C/D90.^I) 1.0µM / Raji sensitization (D90.^C/D90.^I) O.1µM: BCNU, 2 hour pretreatment; for Raji sensitization (D90.^C/D90.^I) 1.0µM: inactivator 1.0µM; for Raji sensitization (D90.^C/D90.^I) O.1µM: inactivator O.1µM; for sensitizing Raji cells to the growth inhibitory effects of BCNU, compared with BeG: Figure 2, in words
Protocol: Following a 2 hour incubation at 37°C, medium containing either increasing doses of BCNU, temozolomide or equivalent vehicle was added and the cells allowed to grow for 6 days. At this time XTT solution was added and the cells incubated for a further 4 hours at 37°C. The resulting red/orange formazan reaction product was quantified by measuring absorption at 450nm on a microtitre platereader.

A375M cells = assay: Sensitization of A375M cells to BCNU (MTT assay); assay type: cell-based, human; conditions: for A375M sensitization (D50.^C/D50.^I) 0.5uM: inactivator 0.5uM 2 hours before; for A375M sensitization (D50.^C/D50.^I) 5.0uM: inactivator 5.0uM 2 hours before
Protocol: Sensitization of A375M cells to the cytotoxic effects of BCNU was analysed by MTT assay ^24 differing from the XTT assay described above as follows. […] After 6 days MTT solution (4mg/ml) was added and cells incubated for 3 hours at 37°C. Medium was aspirated and the resulting purple formazan crystals were solubilised in DMSO (120μl) and cell viability was quantified by measuring absorption at 540nm using a microtitre plate reader.

[4] = Growth inhibition of V79 cells by inactivator alone; assay type: cell-based, Chinese hamster; conditions: chinese hamster, v79 cells, Figure 5
Protocol: as §2

ATase [5] = assay: Depletion of ATase activity in A375 tumour xenografts; assay type: in vivo, nude mice; conditions: 30 mg/kg, 2 or 24 hours after administration, Fig. 8, in words
Protocol: (§3) 0X6 OPT, England (OLAC mice). […] For this reason lower doses were administered.
A375M (human melanoma) cells were grown in DMEM containing 10% fetal bovine serum. The cells were prepared for in vivo inoculation by incubation with 0.01% trypsin.
Cells (10^6) in 100µl of PBS were injected subcutaneously into the right-hand flank of 8-10 week old nu/nu athymic mice. These cells were allowed to develop into a tumour for 3-4 weeks for passaging into experimental animals. Tumour blocks measuring 2mm x 2mm x 2mm were implanted subcutaneously on the right hand flank. These animals were ready for use in inactivator experiments in 7-10 days.

[6] = Inactivator toxicity in bone marrow cells (GM-CFC colonies, inactivator alone); assay type: cell-based, human; conditions: human, bone marrow gm-cfc, inactivator 10uM, read-out: No. of colonies as % of control (ie no inactivator)
Description: For the granulocyte/macrophage colony-forming cell (GM-CFC) assay primary human bone marrow samples were obtained from patients undergoing cardiothoracic surgery. […] The colonies represented precursor cells of the granulocyte/macrophage lineage (huGM-CFC). […]

[7] = Toxicity of inactivator in combination with BCNU in xenograft-bearing mice (survival); assay type: in vivo, nude mice; conditions: Figs. 9-13, in words
Protocol: as §3
Xenograft tumour measurements were taken every 1-2 days by workers using digital calipers. Tumour volume was calculated using the formula (h x w x 1) π/6. The experimental animals were also weighed every 1-2 days. Measurements continued until tumours in the control animals reached the maximum allowable volume (i.e. 1cm x 1cm x 1cm).

human bone marrow cells = assay: Sensitization of bone marrow cells to temozolomide (GM-CFC assay); assay type: cell-based; conditions: for sensitization effect on human bone marrow cells to temozolomide, compared with 0^6-benzylguanine: 10µM inactivator, Figure 14, in words
Description: For the granulocyte/macrophage colony-forming cell (GM-CFC) assay primary human bone marrow samples were obtained from patients undergoing cardiothoracic surgery. […] The colonies represented precursor cells of the granulocyte/macrophage lineage (huGM-CFC). Survival was expressed as a % of the number of colonies at zero dose temozolomide.

Nc1nc(OCc2ccco2)c2nc[nH]c2n1 [B.4203, O^6-furfurylguanine]
IC50 (ATase [1]): 0.04 µM | IC50 (ATase [1]; Human Raji cells, 2 hours at 37°C (Table 5), read-out: Inactivation of ATase in Mammalian Cells I50(µM) Human Raji): 0.04 µM | selectivity ratio [2]: ≥ 100 | susceptibility of XP cells to the growth inhibitory effects of the inactivator (XP cells): as susceptible | IC50 (ATase [3]; Human XP cells, 2 hours at 37°C, read-out: Inactivation of ATase in Mammalian Cells I50(µM) Human XP): 0.06 µM | Raji sensitization (D90.^C/D90.^I) 1.0µM (Raji cells): 5.7 | Raji sensitization (D90.^C/D90.^I) O.1µM (Raji cells): 2.6 | A375M sensitization (D50.^C/D50.^I) 0.5uM (A375M cells): 2.0 | A375M sensitization (D50.^C/D50.^I) 5.0uM (A375M cells): 2.5 | selectivity ratio ([4]; read-out: growth inhibitory dose in V79 cells relative to the I50 dose): ≥ 100 | MCC at 2 h ([4]; inactivator alone, up to 600µM, 2h at 37°, read-out: doses producing some growth inhibition of V79 cells): > 100 µM

Nc1nc(OCc2cccs2)c2nc[nH]c2n1 [B.4205, O^6-thenylguanine]
IC50 (ATase [1]): 0.02 µM | IC50 (ATase [1]; read-out: Inactivation of ATase in Mammalian Cells I50(µM) Human Raji, Human Raji cells, 2 hours at 37°C (Table 5)): 0.02 µM | inactivating ATase in human melanoma xenografts grown in nude mice, compared with BeG (ATase [5]): as effective as BeG | viability at 216 h, 10 µM ([6]; Patient A): 91% | viability at 216 h, 10 µM ([6]; Patient B): 46% | viability at 216 h, 10 µM ([6]; Patient C): 97% | viability at 216 h, 10 µM ([6]; Patient D): 118% | viability at 216 h, 10 µM ([6]; Patient E): 89% | selectivity ratio [2]: ≥ 100 | susceptibility of XP cells to the growth inhibitory effects of the inactivator (XP cells): more sensitive than V79 cells | IC50 (ATase [3]): 0.03 µM | toxicity in combination with BCNU in nude mice [7]: substantially less toxic; also recorded: very little effect | sensitization effect on human bone marrow cells to temozolomide, compared with 0^6-benzylguanine (human bone marrow cells; patient D): no differential | sensitization effect on human bone marrow cells to temozolomide, compared with 0^6-benzylguanine (human bone marrow cells; patients C & E): smaller sensitization effect than 0^6-benzylguanine | sensitization of GM-CFCs in human bone marrow samples to the toxic effects of temozolomide (human bone marrow cells; three samples tested (BeG: all three; B.4205: two of these), Fig. 14, in words): little or no sensitization | sensitizing Raji cells to the growth inhibitory effects of BCNU, compared with BeG (Raji cells; 0.1uM inactivator): more effective than BeG | sensitizing Raji cells to the growth inhibitory effects of BCNU, compared with BeG (Raji cells; 1.0uM inactivator): equally effective | Raji sensitization (D90.^C/D90.^I) 1.0µM (Raji cells): 8.0 | Raji sensitization (D90.^C/D90.^I) O.1µM (Raji cells): 8.4 | A375M sensitization (D50.^C/D50.^I) 0.5uM (A375M cells): 2.8 | A375M sensitization (D50.^C/D50.^I) 1.0uM (A375M cells; inactivator 1.0uM 2 hours before): 2.3 | A375M sensitization (D50.^C/D50.^I) 5.0uM (A375M cells): 3.5
